Laboratory results as given in US11014911B2, “CDK2 inhibitors” (Pfizer Inc., priority 2019, dated 2021).

The compounds below were run against CDK2/Cyclin E1 full length (Homo sapiens (Human), UniProt P24941) (assay: CDK2/Cyclin E1 full length mobility shift assay).
Format: biochemical

Row | Ki [nM] | SMILES
1 | 3.8 | CCCNC(=O)O[C@@H]1CC[C@H](c2cc(NC(=O)Cc3ccccc3S(=O)(=O)C3CC3)n[nH]2)C1 [Example 210, (1R,3S)-3-[3-({[2-(cyclopropylsulfonyl)-phenyl]acetyl}amino)-1H-pyrazol-5-yl]cyclopentyl propylcarbamate]
2 | 1.67 | Cc1cnc(CC(=O)Nc2cc([C@H]3CC[C@@H](OC(=O)N4CC[C@@H]4C)C3)[nH]n2)cn1 [Example 591, (1R,3S)-3-(3-{[(5-methylpyrazin-2-yl)acetyl]amino}-1H-pyrazol-5-yl)cyclopentyl (2S)-2-methylazetidine-1-carboxylate]
3 | 1.43 | C[C@H]1CCCN1C(=O)O[C@@H]1CC[C@H](c2cc(NC(=O)Cc3ccccn3)n[nH]2)C1 [Example 630, (1R,3S)-3-{3-[(pyridin-2-ylacetyl)amino]-1H-pyrazol-5-yl}cyclopentyl (2S)-2-methylpyrrolidine-1-carboxylate]
4 | 2.86 | Cc1cc(CC(=O)Nc2cc([C@H]3CC[C@@H](OC(=O)N4CCC4C)C3)[nH]n2)on1 (single isomer, unassigned) [Example 590]
5 | 1.57 | Cc1cnc(CC(=O)Nc2cc([C@H]3CC[C@@H](OC(=O)NC(C)C)C3)[nH]n2)o1 [Example 271, (1R,3S)-3-(3-{[(5-methyl-1,3-oxazol-2-yl)acetyl]amino}-1H-pyrazol-5-yl)cyclopentyl propan-2-ylcarbamate]
6 | 2.03 | CCC(CO)CNC(=O)O[C@@H]1CC[C@H](c2cc(NC(=O)Cc3ccc(OC)cc3)n[nH]2)C1 (single isomer, unassigned) [Example 530]
7 | 1.51 | CCC(CO)CNC(=O)O[C@@H]1CC[C@H](c2cc(NC(=O)Cc3ccc(OC)cc3)n[nH]2)C1 (single isomer, unassigned) [Example 531]
8 | 2.12 | COc1cnc(CC(=O)Nc2cc([C@H]3CC[C@@H](OC(=O)NC(C)C)C3)[nH]n2)s1 [Example 280, (1R,3S)-3-(3-{[(5-methoxy-1,3-thiazol-2-yl)acetyl]amino}-1H-pyrazol-5-yl)cyclopentyl propan-2-ylcarbamate]
9 | 1.8 | C[C@]1(O)CC[C@H](NC(=O)O[C@H]2CC[C@@H](c3cc(NC(=O)Cc4ccc(F)cc4)n[nH]3)C2)CC1 [Example 561, (1S,3R)-3-(3-{[(4-fluorophenyl)acetyl]amino}-1H-pyrazol-5-yl)cyclopentyl (trans-4-hydroxy-4-methylcyclohexyl)carbamate]
10 | 1.7 | CC1(NC(=O)O[C@@H]2CC[C@H](c3cc(NC(=O)Cc4cn(CC(F)(F)F)nn4)n[nH]3)C2)CC1 [Example 446, (1R,3S)-3-[3-({[1-(2,2,2-trifluoroethyl)-1H-1,2,3-triazol-4-yl]acetyl}amino)-1H-pyrazol-5-yl]cyclopentyl (1-methylcyclopropyl)carbamate]
11 | 2.67 | CCCN(CCC)C(=O)O[C@@H]1CC[C@H](c2cc(NC(=O)Cc3ccno3)n[nH]2)C1 [Example 225, (1R,3S)-3-{3-[(1,2-oxazol-5-ylacetyl)amino]-1H-pyrazol-5-yl}cyclopentyl dipropylcarbamate]
12 | 0.55 | CC(C)(C)NC(=O)O[C@@H]1CC[C@H](c2cc(NC(=O)Cc3ncccc3F)n[nH]2)C1 [Example 301, (1R,3S)-3-(3-{[(3-fluoropyridin-2-yl)acetyl]amino}-1H-pyrazol-5-yl)cyclopentyl tert-butylcarbamate]
13 | 2.23 | CC(=O)N1CCC(CNC(=O)O[C@H]2CC[C@@H](c3cc(NC(=O)Cc4cc(F)cc(F)c4)n[nH]3)C2)CC1 [Example 582, (1S,3R)-3-(3-{[(3,5-difluorophenyl)acetyl]amino}-1H-pyrazol-5-yl)cyclopentyl [(1-acetylpiperidin-4-yl)methyl]carbamate]
14 | 1.04 | COc1cnc(CC(=O)Nc2cc([C@H]3CC[C@@H](OC(=O)N4[C@@H](C)C[C@@H]4C)C3)[nH]n2)cn1 [Example 610, (1R,3S)-3-(3-{[(5-methoxypyrazin-2-yl)acetyl]amino}-1H-pyrazol-5-yl)cyclopentyl (2S,4S)-2,4-dimethylazetidine-1-carboxylate]

More lines, now with the values behind:

Row | SMILES | Ki [nM]
15 | COc1cc(C(=O)Nc2cc([C@H]3CC[C@@H](OC(=O)NC4(C)CCOC4)C3)[nH]n2)n(C)n1 (single isomer, unassigned) [Example 479] | 0.89
16 | COc1cc(CC(=O)Nc2cc([C@H]3CC[C@@H](OC(=O)NC(C)CC(F)F)C3)[nH]n2)ccn1 (single isomer, unassigned) [Example 99] | 0.09
17 | Cc1ccnc(CC(=O)Nc2cc([C@H]3CC[C@@H](OC(=O)NC4(C)CC4)C3)[nH]n2)c1Cl [Example 441, (1R,3S)-3-(3-{[(3-chloro-4-methylpyridin-2-yl)acetyl]amino}-1H-pyrazol-5-yl)cyclopentyl (1-methylcyclopropyl)carbamate] | 1.42
18 | COc1cnc(CC(=O)Nc2cc([C@H]3CC[C@@H](OC(=O)N[C@H](C)C4CC4)C3)[nH]n2)cn1 [Example 472, (1R,3S)-3-(3-{[(5-methoxypyrazin-2-yl)acetyl]amino}-1H-pyrazol-5-yl)cyclopentyl [(1R)-1-cyclopropylethyl]carbamate] | 1.17
19 | CC(CC(F)(F)F)N(C)C(=O)O[C@@H]1CC[C@H](c2cc(NC(=O)Cc3ccno3)n[nH]2)C1 (single isomer, unassigned) [Example 89] | 0.85
20 | CC[C@H](C)NC(=O)O[C@@H]1CC[C@H](c2cc(NC(=O)Cc3cnn(CC)n3)n[nH]2)C1 [Example 339, (1R,3S)-3-(3-{[(2-ethyl-2H-1,2,3-triazol-4-yl)acetyl]amino}-1H-pyrazol-5-yl)cyclopentyl (2S)-butan-2-ylcarbamate] | 0.66
21 | Cc1cc(CC(=O)Nc2cc([C@H]3CC[C@@H](OC(=O)N[C@H](C)C4CC4)C3)[nH]n2)on1 [Example 469, (1R,3S)-3-(3-{[(3-methyl-1,2-oxazol-5-yl)acetyl]amino}-1H-pyrazol-5-yl)cyclopentyl [(1R)-1-cyclopropylethyl]carbamate] | 0.31
22 | Cc1nc(CC(=O)Nc2cc([C@H]3CC[C@@H](OC(=O)NC(C)C)C3)[nH]n2)ccc1Cl [Example 282, (1R,3S)-3-(3-{[(5-chloro-6-methylpyridin-2-yl)acetyl]amino}-1H-pyrazol-5-yl)cyclopentyl propan-2-ylcarbamate] | 2.34
23 | C[C@@H](NC(=O)O[C@@H]1CC[C@H](c2cc(NC(=O)Cc3ccon3)n[nH]2)C1)C1CC1 [Example 467, (1R,3S)-3-{3-[(1,2-oxazol-3-ylacetyl)amino]-1H-pyrazol-5-yl}cyclopentyl [(1R)-1-cyclopropylethyl]carbamate] | 1.2
24 | CC(CC(F)(F)F)NC(=O)O[C@@H]1CC[C@H](c2cc(NC(=O)Cc3ccno3)n[nH]2)C1 (single isomer, unassigned) [Example 85] | 1.06
25 | CC(C)(C)CNC(=O)O[C@@H]1CC[C@H](c2cc(NC(=O)Cc3ccno3)n[nH]2)C1 [Example 418, (1R,3S)-3-{3-[(1,2-oxazol-5-ylacetyl)amino]-1H-pyrazol-5-yl}cyclopentyl (2,2-dimethylpropyl)carbamate] | 2.69
26 | COCCn1nccc1C(=O)Nc1cc([C@H]2CC[C@@H](OC(=O)NC(C)CC(F)(F)F)C2)[nH]n1 (single isomer, unassigned) [Example 88] | 0.15
27 | Cc1ncc(CC(=O)Nc2cc([C@H]3CC[C@@H](OC(=O)NCC(F)F)C3)[nH]n2)s1 [Example 249, (1R,3S)-3-(3-{[(2-methyl-1,3-thiazol-5-yl)acetyl]amino}-1H-pyrazol-5-yl)cyclopentyl (2,2-difluoroethyl)carbamate] | 2.32
